Results taken from patent US20240067651A1 (Biohaven Therapeutics Ltd., priority 2019, published 2024).

Columns and labels:
[1] = Caco-2 Permeability Assay; assay type: in vitro ADME, human; details: human
Excerpt: The compounds of the invention may be tested for biological activity as MPO inhibitors by methods known to those skilled in the art. In addition, methods such as, for example, a Caco-2 assay, may be used to test the bioavailability of the compounds of the invention. A description of a Caco-2 permeability assay is as follows:
• The Caco-2 monolayer is widely used across the pharmaceutical industry as an in vitro model of the human small intestinal mucosa to predict the absorption of orally administered drugs.^1-4 • The Caco-2 cell model mimics processes such as transcellular transport, paracellular transport, and some aspects of efflux and active transport. • Readout: Papp (A→B), Papp (B→A), Efflux ratio, % Recovery • Controls: with and without Pgp inhibitor; Atenolol, Propanolol, Taxel-1
The Caco-2 cells are cultured to confluency, trypsinized and seeded onto a filter transwell insert at a density of ^˜32,000 cells/well in DMEM cell culture medium. Cells are grown in a humidified atmosphere of 5% CO2 at 37° C. Following an overnight attachment period (24 h after seeding), the cell medium is replaced with fresh medium in both the apical and basolateral compartments every other day. The cell monolayers are used for transport studies 21 days post seeding after measuring the TEER values ([…]). The apical sides and basolateral sides are washed consecutively with HBSS 2.5% (v/v), HEPES (pH 7.4) or HBSS 2.5% (v/v), HEPES 10% (v/v), and Fetal Bovine Serum (pH 7.4) at 37° C. in an incubator under an atmosphere of 5% CO2.
Donor working solution is prepared by dilution of DMSO stock of test article or positive control with transport media to 10 μM.
For A→B directional transport, the donor working solution (with test article or positive control, with or without Pgp inhibitor) is added to the apical (A) compartment and the transport media as receiver working solution is added to the basolateral (B) compartment. For B→A directional transport, the donor working solution (with positive control or test article, with or without Pgp inhibitor) is added to the basolateral (B) compartment and transport media as receiver working solution is added to the apical (A) compartment.
The cells are incubated in a humidified atmosphere of 5% CO2 at 37° C. for 90 minutes.
At the end of the incubation, samples are taken from both donor and receiver compartments and transferred into 96-well assay plates containing internal standard solution (IS) in each well. After centrifugation, the supernatant solutions are transferred to clean 96 well plates and analyzed by LC-MS/MS. The MS detection is performed using a Sciex API 4000 instrument. Each compound is analyzed by reversed phase HPLC.
The parameters Papp (apparent permeability) and efflux ratio are calculated as follows:
Papp=(dQ/dt)×(1/C0)×(1/A)
Efflux ratio=Papp[B→A]/Papp[A→B]
where dQ/dt is the permeability rate, C0 is the initial concentration in the donor compartment, and A is the surface area of the cell monolayer (0.33 cm^2). The Papp value is a rate measured in cm/s. Calculated Papp is ranked as low (<[…]), moderate (1-10×10^−6 cm/s), and high (>[…]).
Comparing the efflux ratios generated in the presence and absence of a Pgp inhibitor identifies whether the test article is a Pgp substrate.
Recovery is calculated as follows:
% Recovery=(Total compound mass in donor and receiver compartments at the end of the incubation/Initial compound mass in the donor compartment)×100.

[2] = Stability in Simulated Gastric Fluid (SGF); assay type: in vitro ADME; design: key: % parent compound remaining relative to 0-minute sample; details: % remaining at 1 h in simulated gastric fluid
Outline: (§1)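 Percent parent compound remaining, by LC-MS/MS against the 0-minute sample, is reported after incubation at 2 μg/mL (final) in pepsin-containing SGF at pH 1.2 or pancreatin-containing SIF at pH 6.8. Incubations run at 37° C for up to 60 minutes.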

[3] = Stability in Simulated Intestinal Fluid (SIF); assay type: in vitro ADME; design: key: % parent compound remaining relative to 0-minute sample; details: % remaining at 1 h in simulated intestinal fluid
Outline: as §1

Plasma Stability = assay type: in vitro ADME, human; details: % remaining at 1 h in human plasma
Outline: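 Compounds incubated at 1 μM in fresh human plasma for 1 hour at 37° C, then protein-precipitated with acetonitrile/formic acid containing internal standard. Remaining parent measured by LC-MS/MS in triplicate, expressed as percent of control remaining.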

[4] = Caco-2, pH 7.4, Caco-2 monolayer

| Compound | Papp at 90 min, 10 µM [1, 4] [×10⁻⁶ cm/s] | SGF [2] | SIF [3] | human Plasma stability (Plasma Stability) [% remaining] | Papp at 90 min, 10 µM ([1]; pH 7.4, Caco-2 monolayer) [×10⁻⁶ cm/s] |
| --- | --- | --- | --- | --- | --- |
| CSCC[C@H](NC(=O)OCC1c2ccccc2-c2ccccc21)C(=O)NCCC(=O)OCn1ccc2c1c(=O)[nH]c(=S)n2CCOC(C)C.O=C(O)C(F)(F)F [Example 21] | 5.79 | 88% remaining | 75% remaining | 91 | – |
| CC(C)OCCn1c(=S)[nH]c(=O)c2c1ccn2COC(=O)CCCCNC(=O)[C@H](Cc1ccccc1)NC(=O)OCC1c2ccccc2-c2ccccc21.O=C(O)C(F)(F)F [Example 22] | 0.647 | 87% remaining | 90% remaining | 74 | – |
| CC(C)OCCn1c(=S)[nH]c(=O)c2c1ccn2COC(=O)CCNC(=O)[C@H](Cc1ccccc1)NC(=O)OCC1c2ccccc2-c2ccccc21.O=C(O)C(F)(F)F [Example 23] | 1.94 | 93% remaining | 84% remaining | 92 | – |
| CC(C)OCCn1c(=S)[nH]c(=O)c2c1ccn2COC(=O)CCNC(=O)[C@@H](N)CCc1ccccc1.O=C(O)C(F)(F)F [Example 25] | 0.287 | 99% remaining | 43% remaining | 96 | – |
| CC(C)C[C@H](NC(=O)OC(C)(C)C)C(=O)NCCCCC(=O)OCn1ccc2c1c(=O)[nH]c(=S)n2CCOC(C)C [Example 26] | 12.7 | 99% remaining | 66% remaining | 32 | – |
| CC(C)C[C@H](NC(=O)OC(C)(C)C)C(=O)NCCC(=O)OCn1ccc2c1c(=O)[nH]c(=S)n2CCOC(C)C [Example 27] | 8.61 | 92% remaining | 61% remaining | 91 | – |
| CSCC[C@H](NC(=O)OC(C)(C)C)C(=O)NCCCCC(=O)OCn1ccc2c1c(=O)[nH]c(=S)n2CCOC(C)C [Example 28] | 6.7 | 99% remaining | 75% remaining | 62 | – |
| CSCC[C@H](NC(=O)OC(C)(C)C)C(=O)NCCC(=O)OCn1ccc2c1c(=O)[nH]c(=S)n2CCOC(C)C [Example 29] | 5.41 | 92% remaining | 62% remaining | 98 | – |
| CC(C)C[C@H](N)C(=O)NCCC(=O)OCn1ccc2c1c(=O)[nH]c(=S)n2CCOC(C)C.O=C(O)C(F)(F)F [Example 30] | < 0.269 | 93% remaining | 67% remaining | 40 | – |
| CSCC[C@H](N)C(=O)NCCCCC(=O)OCn1ccc2c1c(=O)[nH]c(=S)n2CCOC(C)C.O=C(O)C(F)(F)F [Example 31] | 0.325 | 94% remaining | 85% remaining | 1 | – |
| CC[C@H](C)[C@H](NC(=O)OC(C)(C)C)C(=O)NCCCCC(=O)OCn1ccc2c1c(=O)[nH]c(=S)n2CCOC(C)C [Example 33] | 9.47 | 90% remaining | 78% remaining | 53 | – |
| CC[C@H](C)[C@H](NC(=O)OC(C)(C)C)C(=O)NCCC(=O)OCn1ccc2c1c(=O)[nH]c(=S)n2CCOC(C)C [Example 34] | 10.7 | 85% remaining | 90% remaining | 93 | – |
| CC(C)OCCn1c(=S)[nH]c(=O)c2c1ccn2COC(=O)CCCCNC(=O)[C@@H](NC(=O)OC(C)(C)C)[C@@H](C)O.O=C(O)C(F)(F)F [Example 35] | 1.91 | 91% remaining | 99% remaining | 30 | – |
| CC(C)OCCn1c(=S)[nH]c(=O)c2c1ccn2COC(=O)CCNC(=O)[C@@H](NC(=O)OC(C)(C)C)[C@@H](C)O.O=C(O)C(F)(F)F [Example 36] | 0.835 | 95% remaining | 88% remaining | 79 | – |
| CC[C@H](C)[C@H](N)C(=O)NCCCCC(=O)OCn1ccc2c1c(=O)[nH]c(=S)n2CCOC(C)C.O=C(O)C(F)(F)F [Example 37] | 1.09 | 88% remaining | 89% remaining | 1 | – |
| CC[C@H](C)[C@H](N)C(=O)NCCC(=O)OCn1ccc2c1c(=O)[nH]c(=S)n2CCOC(C)C.O=C(O)C(F)(F)F [Example 38] | 0.31 | 92% remaining | 84% remaining | 65 | – |
| CC(C)OCCn1c(=S)[nH]c(=O)c2c1ccn2COC(=O)CCCCNC(=O)[C@@H](N)[C@@H](C)O.O=C(O)C(F)(F)F [Example 39] | < 0.196 | 91% remaining | 91% remaining | 5 | – |
| CC(C)OCCn1c(=S)[nH]c(=O)c2c1ccn2COC(=O)CCNC(=O)[C@@H](N)[C@@H](C)O.O=C(O)C(F)(F)F [Example 40] | < 0.235 | 100% | 86% remaining | 88 | – |
| CC(C)OCCn1c(=S)[nH]c(=O)c2c1ccn2COC(=O)CCCCNC(=O)[C@H](CO)NC(=O)OC(C)(C)C.O=C(O)C(F)(F)F [Example 41] | 1.15 | 78% remaining | 87% remaining | 21 | – |
| CC(C)OCCn1c(=S)[nH]c(=O)c2c1ccn2COC(=O)CCNC(=O)[C@H](CO)NC(=O)OC(C)(C)C.O=C(O)C(F)(F)F [Example 42] | 0.507 | 86% remaining | 75% remaining | 51 | – |
| CC(C)OCCn1c(=S)[nH]c(=O)c2c1ccn2COC(=O)CCCCNC(=O)[C@@H](N)CO.O=C(O)C(F)(F)F [Example 43] | 0.147 | 92% remaining | 87% remaining | 16 | – |
| CC(C)OCCn1c(=S)[nH]c(=O)c2c1ccn2COC(=O)CCNC(=O)[C@@H](N)CO.O=C(O)C(F)(F)F [Example 44] | < 0.222 | 96% remaining | 1% remaining | 5 | – |
| CC(C)OCCn1c(=S)[nH]c(=O)c2c1ccn2COC(=O)CCCCNC(=O)[C@H](Cc1ccc(O)cc1)NC(=O)OC(C)(C)C.O=C(O)C(F)(F)F [Example 45] | – | 100% | 89% remaining | 66 | 2.28 |
| CC(C)OCCn1c(=S)[nH]c(=O)c2c1ccn2COC(=O)CCNC(=O)[C@H](Cc1ccc(O)cc1)NC(=O)OC(C)(C)C.O=C(O)C(F)(F)F [Example 46] | 1.12 | 98% remaining | 100% | 63 | – |
